The record followed here is PubChem BioAssay AID1845196 (Molecular Pharmacology Branch, DTP, NCI, 2023).

SMILES strings stand for the structures. “And” between values parts separate entries of the source, which are not always exact repeats. Identical values can stand only once.

In this assay the test system is 292921-168-R tumor spheroid viability. The experiment in a line: Anticancer human tumor 292921-168-R patient-derived pancreatic carcinoma cell line growth inhibition. The conditions noted are these: spheroids with HUVEC and MSC; for viability, T/C: stronger effect = lower value. The source says:
Multicellular complex tumor spheroid response to DNA repair inhibitors in combination with DNA-damaging drugs
This study explores the anticancer activities of DNA-damaging drugs and inhibitors of DNA damage repair, both as single agents and in combinations. Complex tumor spheroids comprised of malignant cells, endothelial cells and mesenchymal stem cells served as an in vitro model for human solid tumors. This model system incorporates physiologically relevant features and patient-derived or established malignant cell lines with clinically relevant genetic alterations from many tumor types. Twenty-six patient-derived or established malignant cell lines were evaluated representing sarcoma, melanoma, small cell lung cancer (SCLC), non-small cell lung cancer (NSCLC), as well as bladder, ovarian and pancreatic cancers. The concentration ranges selected for each drug and investigational agent were based upon clinically achievable concentrations if the clinical Cmax of the agent was known.
Compounds. The drugs and compounds olaparib (NSC753686), talazoparib (NSC767125), berzosertib (NSC777718), elimusertib (NSC800525), nedisertib (NSC802822), VX-984 (NSC792969), AZD-1390 (NSC803789), temozolomide (NSC362856), topotecan (NSC609699), trabectedin (NSC813783), staurosporine (NSC755774), and gemcitabine (NSC613327) were obtained from the National Cancer Institute (NCI) Developmental Therapeutics Program Chemical Repository. The FDA-approved anticancer drug set is available from the Developmental Therapeutics Program at https://dtp.cancer.gov/organization/dscb/obtaining/available_plates.htm. […] The stock solutions were prepared in dimethyl sulfoxide (DMSO, Sigma-Aldrich, St. Louis, MO, cat. D2650) at 400-fold the tested concentration and stored at -70 degrees C. Prior to their use, the stock solutions were diluted in fresh medium and the final DMSO concentration in the assay was 0.25% (v/v). All drugs and investigational agents were tested over a range starting from a high concentration at or near the clinical Cmax and decreasing in half-log increments. If the clinical Cmax for an agent had not been determined, the highest concentration tested was 10 microM.
Cell Lines. The patient-derived cancer cell (PDC) lines: 156681-154-R-J1-PDC, 283228-195-R-J1-PDC, 287954-098-R-J1-PDC, 292921-168-R-J2-PDC, 349418-098-R-PDC, 425362-245-T-J1-PDC, 556581-035-R-J1-PDC, and BL0293-F563-PDC were received from the NCI Patient-Derived Models Repository (PDMR, https://pdmr.cancer.gov). The established cell lines HS-SY-2 (RRID:CVCL_8719), MPNST, and SYO-1 (RRID:CVCL_7146) were obtained from the Sloan Kettering Institute. The alveolar soft parts sarcoma cell line ASPS-1 (RRID:CVCL_S738) was established at the NCI and grown from internal seed stocks. The following established cell lines were purchased from the American Type Culture Collection (ATCC, Manassas, VA): G-401 (ATCC, cat. CRL-1441, RRID:CVCL_0270), SW982 (ATCC, cat. HTB-93, RRID:CVCL_1734), VA-ES-BJ (ATCC, cat. CRL-2138, RRID:CVCL_1785), NCI-H719 (ATCC, cat. CRL-5837, RRID:CVCL_1582), NCI-H196 (ATCC, cat. CRL-5823, RRID:CVCL_1509), NCI-H841 (ATCC, cat. CRL-5845, RRID:CVCL_1595), NCI-H1618 (ATCC, cat. CRL-5879, RRID:CVCL_1480), NCI-H1876 (ATCC, cat. CRL-5902, RRID:CVCL_1503), DMS 114 (ATCC, cat. CRL-2066; RRID:CVCL_1174), NCI-H211 (ATCC, cat. CRL-5824; RRID:CVCL_1529), and SW 1271 (ATCC, cat. CRL-2177, RRID:CVCL_1716). The small cell lung cancer cell line COR-L88 was purchased from Sigma-Aldrich (cat. 92031917-1VL, RRID:CVCL_1141). The non-small cell lung cancer cell lines NCI-H226 (RRID:CVCL_1544) and NCI-H322M (RRID:CVCL_1557) were established at the NCI and grown from internal seed stocks. Pooled donor human umbilical vein endothelial cells (HUVEC, Lonza, cat. CC-2519) and human mesenchymal stem cells (hMSC, Lonza, cat. PT-2501) were purchased from Lonza (Walkersville, MD).
Cell Culture. All cells were maintained in an incubator at 37 degrees C and 5% CO2 with 95% humidity. […]
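Note: spheroids exposed to compounds for 7 days.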

Usually IC50 stands for the midpoint of a concentration-inhibition curve. Broadly, the viability, T/C is the result in the treated group divided by that in the control group, in per cent. For `COc1ccc([C@@H](O)c2cc(-c3ncnc4cc(N5CCOCC5)ccc34)c(F)cc2Cl)nn1` + Cn1nnc2c(C(N)=O)ncn2c1=O, the IC50 came out at 1.23 µM (curve of first compound, second compound 1 µM); 1.47 µM (curve of first compound, second compound 3.16 µM); 1.29 µM (curve of first compound, second compound 10 µM); 1.14 µM (curve of first compound, second compound 31.6 µM); 0.899 µM (curve of first compound, second compound 100 µM). For the same compound, the viability, T/C by setting is: (second compound 1 µM, first compound 0.0316 µM) 96.4%; (second compound 1 µM, first compound 0.1 µM) 91.1%; (second compound 1 µM, first compound 0.316 µM) 70.9%; (second compound 1 µM, first compound 1 µM) 55.5%; (second compound 1 µM, first compound 3.16 µM) 32.5%; (second compound 1 µM, first compound 10 µM) 17.9%. For the same compound, the viability, T/C by setting is: (second compound 3.16 µM, first compound 0.0316 µM) 101%; (second compound 3.16 µM, first compound 0.1 µM) 95.5%; (second compound 3.16 µM, first compound 0.316 µM) 82.2%; (second compound 3.16 µM, first compound 1 µM) 60.1%; (second compound 3.16 µM, first compound 3.16 µM) 31.6%; (second compound 3.16 µM, first compound 10 µM) 19%. For the same compound, the viability, T/C is 97.5% (second compound 10 µM, first compound 0.0316 µM); 91.6% (second compound 10 µM, first compound 0.1 µM); 84.9% (second compound 10 µM, first compound 0.316 µM); 51% (second compound 10 µM, first compound 1 µM); 35.5% (second compound 10 µM, first compound 3.16 µM); 18.2% (second compound 10 µM, first compound 10 µM). Also, the viability, T/C is 95.5% (second compound 31.6 µM, first compound 0.0316 µM); 92.5% (second compound 31.6 µM, first compound 0.1 µM); 81.5% (second compound 31.6 µM, first compound 0.316 µM); 51.2% (second compound 31.6 µM, first compound 1 µM); 30.4% (second compound 31.6 µM, first compound 3.16 µM); 18.6% (second compound 31.6 µM, first compound 10 µM). Also, the viability, T/C is, setting by setting: (second compound 100 µM, first compound 0.0316 µM) 93%; (second compound 100 µM, first compound 0.1 µM) 88.5%; (second compound 100 µM, first compound 0.316 µM) 77.7%; (second compound 100 µM, first compound 1 µM) 45%; (second compound 100 µM, first compound 3.16 µM) 30.4%; (second compound 100 µM, first compound 10 µM) 18.9%.

Take `Cc1cc(C)c(CNC(=O)c2cc(-c3ccc(CN4CCOCC4)cc3)cc3c2cnn3C2CCCC2)c(=O)[nH]1`: the viability, T/C is 103% and 102% and 97.1% (compound 0.0316 µM); 101% and 104% and 88.9% (compound 0.1 µM); 110% and 97.8% and 101% (compound 0.316 µM); 106% and 103% and 98.5% (compound 1 µM); 102% and 88.8% and 103% (compound 3.16 µM); 75.6% and 68.8% and 63.9% (compound 10 µM). Moreover, the IC50 (curve of compound) is greater than 10 µM.
